Laboratory results as given in US8507656B2, “Stabilized angiopoietin-2 antibodies and uses thereof” (MedImmune Limited, priority 2008, dated 2013).

Assays:
LoVo xenograft tumors = assay type: in vivo; settings: 3.19.3 10 mg/kg 2×wk i.p., 5FU 100 mg/kg/week i.p., combination of both
Description: (§1) The anti-tumor activity of 3.19.3 was evaluated in combination with 5-Fluoruracil (5FU) in the LoVo xenograft model of colorectal cancer. LoVo cells were cultured in flasks as routine until the cells reached sub-confluence. Cell suspensions containing approximately 3×10E6 cells were injected subcutaneously into the flank of female Swiss nude mice. When the tumor volume reached 200 mm^3, the mice were randomized in treatment groups of 8-10 mice and the treatments were initiated. 3.19.3 (10 mg/kg) in saline was injected intraperitoneally, twice per week for 2 weeks and 5-Flurouracil (100 mg/kg) was administered by intraperitoneal administration following a weekly schedule. The dimensions of each tumor and body weights were measured at least twice per week. The volume of the tumor was calculated as: Volume=Length×(Width)×0.5 (cm^3).

HT-29 xenograft tumors = assay: HT-29 xenograft model of colorectal cancer; assay type: in vivo; settings: 3.19.3 10 mg/kg 2×wk i.p., Irinotecan 35 mg/kg/week i.v., combination of both
Description: as §1, with “with Irinotecan” for “with 5-Fluoruracil (5FU)”, “the HT-29” for “the LoVo”, “cancer. HT-29” for “cancer. LoVo”, “2 weeks. Irinotecan (35” for “2 weeks and 5-Flurouracil (100”, “by intravenous” for “by intraperitoneal”, “(cm^3). […] The % tumor growth inhibition achieved is as follows: […]” for “(cm^3).”

Colo205 xenograft tumors = assay: Colo205 xenograft model of colorectal cancer; assay type: in vivo; settings: 3.19.3 10 mg/kg 2×wk i.p., Gemcitabine 50 mg/kg q3dx2 i.v., combination of both
Description: The anti-tumor activity of 3.19.3 was evaluated in combination with Gemcitabine in the Colo205 xenograft model of colorectal cancer. Colo205 cells were cultured in flasks as routine until the cells reached sub-confluence. Cell suspensions containing approximately 3×10E6 cells were injected subcutaneously into the flank of female Swiss nude mice. When the tumor volume reached 200 mm^3, the mice were randomized in treatment groups of 8-10 mice and the treatments were initiated. 3.19.3 (10 mg/kg) in saline was injected intraperitoneally, twice per week for 2 weeks. Gemcitabine (50 mg/kg) was administered by intravenous administration following a q3d schedule. The dimensions of each tumor and body weights were measured at least twice per week. The volume of the tumor was calculated as: Volume=Length×(Width)×0.5 (cm^3). […] The % tumor growth inhibition achieved is as follows: […]

[1] = system: collagen induced arthritis
[2] = means ± SEM, 3.19.3 10 mg/kg i.p every 3 days, hIgG i.p, Prednisolone 3 mg/kg p.o daily, 14 days from disease onset

3.19.3: fully human anti-Ang-2 monoclonal antibody, wild type control; light chain SEQ ID No. 1, heavy chain SEQ ID No. 2 [Antibody 3.19.3]
% tumor growth inhibition (LoVo xenograft tumors): 59% | % tumor growth inhibition (HT-29 xenograft tumors): 44% | % tumor growth inhibition (Colo205 xenograft tumors): 74% | clinical signs of disease progression (arthritic score) and histological assessment of synovitis and joint destruction (in words) ([1]; 3.19.3 10 mg/kg, vs vehicle control): Significant reductions | % Inhibition (of AUC of clinical disease progression) [1, 2]: 64.3% ± 8.6% | Area Under Curve (AUC) of clinical disease progression [1, 2]: 36.0 ± 8.7 | tolerability by mean body weight (in words) ([1]; mouse, in vivo, 10 mg/kg): well tolerated
